From US5523223A, “Ketoester reductase for conversion of keto acid esters to optically active hydroxy acid esters” (priority 1992, dated 1996)
Read-outs that look alike come from different tables or passages of the source.

How the values were obtained:
[1] = system: KERed from C. parapsilosis; assay: Substrate spectrum of the KERed; assay type: biochemical, Candida parapsilosis; conditions: for Rel. Activity: substrate 8 mM, activity with 5-oxo-hexanoic acid ethyl ester = 100%, NADH 0.2 mM, pH 7.9; for Acceptance as substrate by the KERed (in words): reduction with NADH
Experimental: For the following investigation, partially purified enzyme (after Q-sepharose chromatography, 67-times enrichment) was used. […]
5-oxohexanoic acid ethyl ester […]
Corresponding to example 3.B, instead of 5-oxohexanoic acid ethyl ester a series of aromatic and aliphatic ketoesters, ketoacids, ketones, diketones and aldehydes were investigated as to whether they could be reduced enzymatically. For this the compounds were added always in 8 mM final concentration. […] The activity with 5-oxo-hexanoic acid ethyl ester was arbitrarily selected as 100%.

[2] = system: KERed from Candida parapsilosis; assay: Kinetic characterization of the KERed; assay type: biochemical
[3] = referred to 2-butanone, partially purified enzyme

Compound	Rel. Activity [1]	Km ([2]; partially purified enzyme)	Vmax [2, 3]	other results
COC(=O)CC(C)=O	67%			
CCOC(=O)CCCC(C)=O	100%			
CC(=O)CCCC(=O)O	0%			
CCC(=O)CC(=O)OC	18%			
CCOC(=O)CC(=O)C(C)C	24%			
CCOC(=O)CC(=O)c1ccccc1	0%			
CCOC(=O)C(C)C(C)=O (stereo not drawn)	70%			
CC(=O)CCC(C)=O	46%			
O=C1Nc2ccccc2C1=O	0%			
O=C1CCCC(=O)C1	0%			
CC1CCC(=O)CC1	40%			
CC1CCCCC1=O (stereo not drawn)	12%			
CCOC(=O)C1CCCCC1=O (stereo not drawn)	16%			
CC(=O)c1ccccc1Cl	0%			
CC(=O)C(C)C	28%			
CC(=O)C(C)(C)O	0%			
COC(CC(C)=O)OC	14%			
O=CC1CCCCC1	29%			
CC(=O)C(Cl)Cl [1,1-Dichloroacetone]		176 µM	45%	Acceptance as substrate by the KERed (in words) [1]: acceptable as substrates
CCCCO [1-butanol]		2900 µM	47%	
CCCO [1-propanol]		3800 µM	47%	
CCC(=O)CC(C)=O [2,4-hexanedione]				Acceptance as substrate by the KERed (in words) [1]: acceptable as substrates

Compound	Rel. Activity [1]	Km ([2]; partially purified enzyme)	Vmax [2, 3]	other results
CC(=O)CC(C)=O [2,4-pentanedione]				Acceptance as substrate by the KERed (in words) [1]: acceptable as substrates
CCC(C)=O [2-Butanone]		1480 µM	100%	Vmax of the reference substrate ([2]; partially purified enzyme): 6 U mg; Acceptance as substrate by the KERed (in words) [1]: acceptable as substrates
CCCCCCCCC(C)=O [2-decanone]		3960 µM	20%	
CCCCCC(C)=O [2-heptanone]		97 µM	58%	
CCCCC(C)=O [2-hexanone]		54 µM	53%	
CCC(=O)C(C)C [2-methyl-3-pentanone]				Acceptance as substrate by the KERed (in words) [1]: acceptable as substrates
CCCCCCCC(C)=O [2-nonanone]		314 µM	45%	Ki ([2]; substrate inhibition observed, read-out: Kis (substrate inhibition)): 24.9 mM
CCCCCCC(C)=O [2-octanone]		324 µM	62%	Acceptance as substrate by the KERed (in words) [1]: acceptable as substrates
CCCC(C)=O [2-pentanone]		141 µM	62%	Acceptance as substrate by the KERed (in words) [1]: acceptable as substrates
CC(C)O [2-propanol]		2210 µM	183%	
CC(=O)C(C)Cl (stereo not drawn) [3-chloro-2-butanone]		442 µM	50%	Acceptance as substrate by the KERed (in words) [1]: acceptable as substrates
CC(=O)c1cccc(Cl)c1 [3-chloro-aceto-phenone]		15 µM	32%	Acceptance as substrate by the KERed (in words) [1]: acceptable as substrates
CCCCC(=O)CC [3-heptanone]		5600 µM	11%	
CCCC(=O)CC [3-hexanone]		840 µM	10%	
CCCCCC(=O)CC [3-octanone]		11200 µM	12%	
CC(=O)c1ccc(Br)cc1 [4-bromoacetophenone]				Acceptance as substrate by the KERed (in words) [1]: acceptable as substrates
CC(=O)c1ccc(Cl)cc1 [4-chloro-acetophenone]		10 µM	19%	
CC(=O)c1ccc(F)cc1 [4-fluoroacetophenone]				Acceptance as substrate by the KERed (in words) [1]: acceptable as substrates
CCCC(=O)CCC [4-heptanone]		5300 µM	9%	
CC[C@H](C)O [(S)-2-butanol]				Km [2]: 600 µM; Vmax [2]: 210%
CC=O [Acetaldehyde]		85 µM	129%	Acceptance as substrate by the KERed (in words) [1]: acceptable as substrates
CC(C)=O [Acetone]			97%	Km [2]: 1060 µM

Compound	Rel. Activity [1]	Km ([2]; partially purified enzyme)	Vmax [2, 3]	other results
CC(=O)c1ccccc1 [Acetophenone]		49 µM	22%	Acceptance as substrate by the KERed (in words) [1]: acceptable as substrates
CCOC(=O)CC(=O)CC [Ethyl 3-oxopentanoate]		6900 µM	17%	
CCOC(=O)CC(=O)CCl [Ethyl 4-chlor-3-oxo-butanoate]		3560 µM	10%	
CCOC(=O)CC(=O)C(F)(F)F [Ethyl 4-trifluor-3-oxo-butanoate]		2000 µM	11%	
CO [Methanol]			No Reaction	
NC(=O)C1=CN([C@@H]2O[C@H](COP(=O)(O)OP(=O)(O)OC[C@H]3O[C@@H](n4cnc5c(N)ncnc54)[C@H](O)[C@@H]3O)[C@@H](O)[C@H]2O)C=CC1 [NADH]		38 µM		
NC(=O)C1=CN([C@@H]2O[C@H](COP(=O)(O)OP(=O)(O)OC[C@H]3O[C@@H](n4cnc5c(N)ncnc54)[C@H](OP(=O)(O)O)[C@@H]3O)[C@@H](O)[C@H]2O)C=CC1 [NADPH]			No Reaction	
COC(OC)C(C)=O [Pyruvaldehyde-Dimethyl-acetal]		189 µM	24%	
CC(=O)CC(=O)OC(C)(C)C [Tert.-Butyl 3-oxo-butanoate]		356 µM	71%	
CCOC(=O)CC(C)=O [drawing 3]	76%			
CCOC(=O)CC(C)=O [drawing 4]	61%			
CC(=O)CC(=O)OC(C)(C)C [drawing 5]	137%			
CC(=O)CCC(=O)O [drawing 6]	0%			
CCOC(=O)CCC(C)=O [drawing 7]	76%			
CCOC(=O)CC(=O)C(F)(F)F [drawing 10]	21%			
CCOC(=O)CC(=O)CCl [drawing 11]	92%			
CCOC(=O)CC(=O)CC [drawing 13]	32%			
CCCC(=O)CC(=O)OCC [drawing 14]	51%			
CC(=O)CC(C)=O [drawing 18]	15%			
CCC(=O)CC(C)=O [drawing 19]	46%			
CC(=O)c1ccccc1 [drawing 26]	34%			
CC(=O)c1cccc(Cl)c1 [drawing 28]	35%			

Compound	Rel. Activity [1]	Km ([2]; partially purified enzyme)	Vmax [2, 3]	other results
CC(=O)c1ccc(Br)cc1 [drawing 29]	40%			
CC(=O)c1ccc(F)cc1 [drawing 30]	40%			
CCC(=O)c1ccccc1 [drawing 31]	0%			
CC(=O)C(Cl)Cl [drawing 33]	60%			
CC(=O)C(C)Cl (stereo not drawn) [drawing 34]	105%			
COCC(C)=O [drawing 35]	53%			
CCC(=O)C(C)C [drawing 37]	51%			
CCC(C)=O [drawing 38]	48%			
CCCC(C)=O [drawing 39]	40%			
CCCCCCC(C)=O [drawing 40]	54%			
CCCCCC(=O)CC [drawing 41]	33%			
CCCC(=O)CC [drawing 43]	4%			
COC(OC)C(C)=O [drawing 44]	118%			
CC=O [drawing 46]	150%			
CCC=O [drawing 47]	127%			
CC(C)C=O [drawing 48]	178%			
CC(C)C=O [isobutyraldehyde]				Acceptance as substrate by the KERed (in words) [1]: acceptable as substrates
COCC(C)=O [methoxy-2-propanone]				Acceptance as substrate by the KERed (in words) [1]: acceptable as substrates
CCC=O [propionaldehyde]				Acceptance as substrate by the KERed (in words) [1]: acceptable as substrates
CCC(=O)c1ccccc1 [propiophenone]				Acceptance as substrate by the KERed (in words) [1]: acceptable as substrates
